Source: PubChem BioAssay (NCI)
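Cells were grown in 96-well plates and exposed to each compound for 48 hours at five concentrations; endpoints were interpolated linearly between bracketing concentrations, or set to the highest concentration if not reached. The concentration for 50% growth inhibition is given as GI50. TGI denotes the concentration required for complete inhibition of growth.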

Key:
Assay in all cases: inhibition of tumour cell growth, NCI panel, 48 h
SK-MEL-2 melanoma = system: SK-MEL-2 melanoma
IGROV1 ovarian = system: IGROV1 ovarian
K-562 leukemia = system: K-562 leukemia
KM12 colon = system: KM12 colon
A549 NSCLC = system: A549 NSCLC
OVCAR-3 ovarian = system: OVCAR-3 ovarian
CCRF-CEM leukemia = system: CCRF-CEM leukemia
RPMI-8226 leukemia = system: RPMI-8226 leukemia
HT29 colon = system: HT29 colon

SMILES | TGI (SK-MEL-2 melanoma) [µM] | TGI (IGROV1 ovarian) [µM] | TGI (K-562 leukemia) [µM] | TGI (KM12 colon) [µM] | TGI (A549 NSCLC) [µM] | TGI (OVCAR-3 ovarian) [µM] | TGI (CCRF-CEM leukemia) [µM] | TGI (RPMI-8226 leukemia) [µM] | TGI (HT29 colon) [µM] | GI50 (HT29 colon) [µM] | GI50 (IGROV1 ovarian) [µM] | GI50 (K-562 leukemia) [µM] | GI50 (OVCAR-3 ovarian) [µM] | GI50 (SK-MEL-2 melanoma) [µM] | GI50 (CCRF-CEM leukemia) [µM] | GI50 (RPMI-8226 leukemia) [µM]
COc1cc(C(=O)N(C(=O)N2CCCCC2)c2ccccc2)cc(OC)c1OC | > 100 | > 100 | > 100 | > 100 | > 100 | > 100 | > 100 | > 100 |  |  |  |  |  |  |  | 
CN(C)CCCN=c1c2ccccc2n(C)c2[nH]c(=O)n(C)c(=O)c12 | 9.96 | > 100 | > 52 | 42.4 | > 100 |  | 16.8 | > 54.4 | 39.2 |  |  |  |  |  |  | 
COc1cccc(/C=N/NC(=O)CN(C)C)c1O |  | > 100 | > 100 | > 100 | > 100 | > 100 | > 100 |  | > 100 |  |  |  |  |  |  | 
O=C1c2c(F)c(F)c(F)c(F)c2SC2=Nc3cccc4cccc(c34)N12 | 7.89 | 24.1 | 4.49 | 10.2 | 39.8 | 7.58 | > 25.1 | 8.02 | 21.4 |  |  |  |  |  |  | 
CC(=O)CC12NC(=O)N(C)N=C1N(C)C(=O)N(C)C2=O (configuration not stated) |  | > 100 | > 100 | > 100 | > 100 | > 100 | > 100 | > 100 | > 100 |  |  |  |  |  |  | 
c1ccc(Sc2nc(Sc3ccccc3)nc(Sc3ccccc3)n2)cc1 | > 100 |  | > 100 | 29.4 | > 100 | 34.5 | > 100 | > 100 | > 100 |  |  |  |  |  |  | 
COC(=O)C1=C(C)NC2=C(C(=O)c3ccccc32)C1c1cn[nH]c1-c1ccccc1 (configuration not stated) | > 100 | > 100 | > 100 | > 100 | > 100 | > 100 | > 100 | > 100 | > 100 |  |  |  |  |  |  | 
CCOC(=O)[C@@]12NN=N[C@@H]1[C@H]1CO[C@H](c3ccccc3)N1C2=O | 21.7 | 20.3 |  | 35 | > 100 | 24.5 | > 100 | 8.71 | 32.4 |  |  |  |  |  |  | 
COc1cc(/C=C/C2=NN(c3cccc(S(=O)(=O)O)c3)C3(C2)SCC(=O)N3c2nc3ccccc3s2)cc(OC)c1OC (configuration not stated) | > 100 | > 100 | > 100 | > 100 | > 100 |  | 75.1 | 48.9 | > 100 |  |  |  |  |  |  | 
CCSc1[nH]c(NC(=NC(C)C)NC(=O)c2ccccc2)c(C(N)=O)c1C(N)=O |  | > 10 | > 10 | > 10 | > 10 |  | > 10 | > 10 | > 10 |  |  |  |  |  |  | 
COC(=O)[C@@H](NC(=O)c1ccc(CNC(=O)/C(C)=C/c2ccccc2)cc1)C(C)C | > 100 | > 100 | > 100 | > 100 | > 100 | > 100 | > 100 | > 100 | > 100 |  |  |  |  |  |  | 
COc1cc(O)c2c(=O)c(OC)c(-c3ccc(OC)c(OC)c3)oc2c1.[Sn] |  | > 100 | > 100 |  | > 100 | > 100 |  | > 100 | > 100 | > 100 | > 100 | > 100 | > 100 |  |  | 
O=c1cc(NNc2cccc(F)c2)[nH]c(=S)[nH]1 |  | > 100 | > 100 | > 100 | > 100 | > 100 |  | > 100 | > 100 |  |  |  |  |  |  | 
NCCN(CCN)/[N+]([O-])=N/O | > 100 | > 100 | > 100 | > 100 | > 100 | > 100 | > 100 | > 100 | > 100 |  |  |  |  |  |  | 
CC(=O)N1CCN(CCCCN2c3ccccc3Sc3cc(N=[N+]=[N-])ccc32)CC1 |  | 29.1 | 31.3 | 28.2 | 30 | 25.3 | 33.2 | 29.1 | 27.8 |  |  |  |  |  |  | 
Cc1cc2c(cc1-c1cc3c(cc1C)C(C(C)C)=C(O)C(=O)/C3=C\Nc1ccccn1)/C(=C/Nc1ccccn1)C(=O)C(O)=C2C(C)C | 86.5 | > 100 | > 100 | 73.6 | > 100 | > 100 | > 100 | > 100 |  |  |  |  |  |  |  | 
O=C1CCc2ccccc2O1 | > 100 | > 100 | > 100 | > 100 |  | > 100 | > 100 | > 100 | > 100 |  |  |  |  |  |  | 
N#Cc1c(O)c(C=O)c(=O)n2c1[nH]c1ccccc12 |  | > 100 | > 100 | > 100 | > 100 | > 100 | > 100 | > 100 | > 100 |  |  |  |  |  |  | 
COc1ccc(N2C(=O)C(=O)C3(CCCCC3)C2=O)c(OC)c1OC |  |  |  | > 100 | > 100 | > 100 | > 100 | > 100 | > 100 |  |  |  |  |  |  | 
CNC(=O)c1cc(Oc2cccc3nc(NC(=O)Nc4ccc(F)cc4F)ccc23)ccn1 | > 50 |  |  |  |  |  | > 50 | > 50 |  |  |  |  |  | > 50 | > 50 | 2.2
O=C(CBr)NCCc1c[nH]c2ccccc12 | 4.16 | 4.22 | 8.41 | 3.85 |  | 4.09 | 0.552 | 4.31 | 3.51 |  |  |  |  |  |  | 
Cc1sc2nc3n(c(=O)c2c1C)N=C(c1ccccc1)CS3 |  | > 100 | > 100 | > 100 | > 100 | > 100 | > 100 | > 100 | > 100 |  |  |  |  |  |  | 
Cc1ccc(S(=O)(=O)NCCCSCCO)cc1 |  |  | > 100 | > 100 | > 100 | > 100 | > 100 |  | > 100 |  |  |  |  |  |  | 
CC(=O)OC12OC(C)(C3C(=O)N(c4ccccc4)C(=O)C31)N(c1ccccc1)C2=O (configuration not stated) | > 100 | > 100 | > 100 | > 100 | > 100 | > 100 | > 100 |  | > 100 |  |  |  |  |  |  | 
O=C1C(=O)N(C23CC4CC(CC(C4)C2)C3)C(=S)N1c1ccccc1 | > 100 | > 100 | > 100 | > 100 | > 100 |  | > 100 | > 100 | > 100 |  |  |  |  |  |  | 
